Consider 10 compounds from patent publication US20250195513A1, “DEGRADATION OF IRAK4 BY CONJUGATION OF IRAK4 INHIBITORS WITH E3 LIGASE LIGAND AND METHODS OF USE” (BeiGene, Ltd., priority 2022, published 2025).

Structures are written as SMILES. pIC50: −log10 of the molar value.

What all share (type): cell-based
The subject of test [1] is TNF-α production in THP-1 cells. Put plainly: TNF-α Production Assay in THP-1 Cells (LPS stimulated). Conditions: Homo sapiens, THP-1, 24 h; for Emax: maximum inhibition, read-out: TNF-α (THP-1) 24 h IMax. The protocol: THP-1 cells maintained in RPMI 1640 medium (Thermo Scientific) supplemented with 10% FBS (Thermo Scientific), 100 units/mL penicillin and 0.1 mg/mL streptomycin (Thermo Scientific) were seeded into 96-well plates at the density of 0.2 million cells per well and then treated with compounds for 24 h. Lipopolysaccharide was subsequently added at the final concentration of 1 μg/mL for 24 h. Culture supernatant was collected for measurement of TNF-α concentration by a TR-FRET-based method (Degorce, François, et al. Current chemical genomics. 2009, 3: 22) as described by the manufacturer manual (Cisbio). FRET signals were measured using a PHERAstar FSX reader (BMG Labtech).

The target of test [2] is T1, IRAK4 (Homo sapiens, UniProt Q9NWZ3).
T1 construct: endogenous in cells; host or cells: Karpas299
T1 sequence (Q9NWZ3 1-460): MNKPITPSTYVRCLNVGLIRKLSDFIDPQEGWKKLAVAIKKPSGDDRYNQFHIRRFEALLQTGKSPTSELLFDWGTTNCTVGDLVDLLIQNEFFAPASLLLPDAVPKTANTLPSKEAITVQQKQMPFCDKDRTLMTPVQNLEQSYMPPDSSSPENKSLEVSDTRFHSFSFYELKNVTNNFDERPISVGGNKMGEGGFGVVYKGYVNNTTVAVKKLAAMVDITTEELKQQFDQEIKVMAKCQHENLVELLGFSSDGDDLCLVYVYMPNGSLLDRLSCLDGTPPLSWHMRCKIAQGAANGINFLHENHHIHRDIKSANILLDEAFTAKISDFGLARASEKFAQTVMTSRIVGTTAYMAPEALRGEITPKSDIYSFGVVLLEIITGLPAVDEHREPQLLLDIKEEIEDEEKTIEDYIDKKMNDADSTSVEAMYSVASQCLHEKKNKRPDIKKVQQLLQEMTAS
Kind of test: IRAK4 Degradation Assay (Karpas299, HTRF/TR-FRET). Conditions: Karpas-299 cells; for Dmax: maximum percentage of degradation. The method in brief: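 Compound potency as DC50 (IC50) came from four-parameter fits of percent IRAK4 degradation. IRAK4 was measured by HTRF (665/620 nm) in lysates of Karpas299 cells seeded at 0.2 million per well. Cells had been treated with compound dilutions for 5 or 24 h.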
(TR-FRET usually uses a lanthanide donor and a delayed reading to cut background.)

The target in test [3] is T1, IRAK4. Put plainly: IRAK4 Degradation Assay with Human Serum (Karpas299, HTRF/TR-FRET). Conditions: Karpas-299 in human serum, 24 hrs treatment; for DC50: read-out: IRAK4 degradtion with human serum assay DC50; for Dmax: read-out: IRAK4 degradtion with human serum assay Dmax (%). The method in brief:
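Remaining IRAK4 measured by TR-FRET immunoassay on lysates of Karpas299 cells exposed 24 h to compound dilution series in human serum AB. DC50 derived from a Hill-slope fit of % degradation versus concentration.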

The mark [4] stands for this setting: 24 h treatment, read-out: IRAK4 in Karpas-299 (24 h) Dmax (%).
Setting [5] is: 24 h treatment, read-out: IRAK4 in Karpas-299 (24 h) DC50.
Setting [6] is: 5 h treatment, read-out: IRAK4 in Karpas-299 (5 h) Dmax (%).
The mark [7] stands for this setting: 5 h treatment, read-out: IRAK4 in Karpas-299 (5 h) DC50.

One may read the pIC50 as −log10 of the IC50, conventionally taken in molar units. Low readings indicate a high IC50, high ones a low IC50. For orientation: Dmax means the greatest extent of degradation seen. One may read the DC50 as the concentration giving 50% degradation.

As for `CC(C)(O)c1cc2nn([C@H]3CC[C@H](N4CCN(C(=O)C5CN(c6cc(F)c(N7CCC(=O)NC7=O)c(F)c6)C5)CC4)CC3)cc2cc1NC(=O)c1cccc(C(F)(F)F)n1` [Example 114, N-(2-((1r,4r)-4-(4-(1-(4-(2,4-dioxotetrahydropyrimidin-1(2H)-yl)-3,5-difluorophenyl)azetidine-3-carbonyl)piperazin-1-yl)cyclohexyl)-6-(2-hydroxypropan-2-yl)-2H-indazol-5-yl)-6-(trifluoromethyl)picolinamide], in test [1], the pIC50 is 7.28 and the Emax amounted to 78%. Also, the Dmax in test [2] (setting [4]) came to 96%. Further, the DC50 in test [2] (setting [5]) is 1.3 nM.

Turning to `COc1cc(N2CC(C(=O)N3CCN([C@H]4CC[C@H](n5cc6cc(NC(=O)c7ccc8cc(C#N)cnn78)c(C(C)(C)O)cc6n5)CC4)CC3)C2)ccc1N1CCC(=O)NC1=O` [Example 269], the DC50 in test [3] was found to be 11 nM; in test [2] (setting [5]) it was 1.8 nM. The Dmax in test [3] was 94%; in test [2] (setting [4]), 97%. Further, the negative-log IC50 (pIC50) in test [1] is 7.62. In test [1], the Emax amounted to 89%.

As for `COc1cc(N2CC(C(=O)N3CCN([C@H]4CC[C@H](n5cc6cc(NC(=O)c7ccc8cc(C#N)cnn78)c(C(C)(C)O)cc6n5)CC4)CC3)C2)ccc1[C@H]1CCC(=O)NC1=O` [Example 259], in test [3], the DC50 was found to be 6.3 nM and the Dmax was 101%. Also, in test [1], the pIC50 is 7.72 and the Emax worked out at 90%. The Dmax in test [2] (setting [4]) came out at 98%. Also, the 50% degradation concentration (DC50) in test [2] (setting [5]) stood at 0.8 nM.

`COC[C@@H]1CN([C@H]2CC[C@H](n3cc4cc(NC(=O)c5ccc6cc(C#N)cnn56)c(C(C)(C)O)cc4n3)CC2)CCN1C(=O)C1CN(c2cc(F)c([C@H]3CCC(=O)NC3=O)c(F)c2)C1` [Example 186, 3-cyano-N-(2-((1S,4r)-4-((S)-4-(1-(4-((R)-2,6-dioxopiperidin-3-yl)-3,5-difluorophenyl)azetidine-3-carbonyl)-3-(methoxymethyl)piperazin-1-yl)cyclohexyl)-6-(2-hydroxypropan-2-yl)-2H-indazol-5-yl)pyrrolo[1,2-b]pyridazine-7-carboxamide]: in test [3], the DC50 was determined as 9.2 nM and the Dmax amounted to 101%. In test [1], the pIC50 was 7.54 and the Emax was 89%. In addition, the Dmax in test [2] (setting [4]) worked out at 99%. The DC50 in test [2] (setting [5]) turned out to be 0.9 nM.

Consider `C[C@@H]1CN(C2CN(c3cc(F)c([C@H]4CCC(=O)NC4=O)c(F)c3)C2)CCN1[C@H]1CC[C@H](n2cc3cc(NC(=O)c4ccc5cc(C#N)cnn45)c(C(C)(C)O)cc3n2)CC1` [Example 302, 3-cyano-N-(2-((1R,4r)-4-((R)-4-(1-(4-((R)-2,6-dioxopiperidin-3-yl)-3,5-difluorophenyl)azetidin-3-yl)-2-methylpiperazin-1-yl)cyclohexyl)-6-(2-hydroxypropan-2-yl)-2H-indazol-5-yl)pyrrolo[1,2-b]pyridazine-7-carboxamide], for which, in test [3], the DC50 came out at 8.8 nM and the Dmax amounted to 96%. For the same compound, in test [1], the pIC50 was 7.42 and the Emax worked out at 84%. Moreover, the Dmax in test [2] (setting [4]) worked out at 98%. Moreover, in test [2] (setting [5]), the DC50 came out at 0.8 nM.

Take `COC[C@@H]1CN([C@H]2CC[C@H](n3cc4cc(NC(=O)c5ccc6cc(C#N)cnn56)c(C(C)(C)O)cc4n3)CC2)CCN1CC1CN(c2cc(F)c([C@H]3CCC(=O)NC3=O)c(F)c2)C1` [Example 358, 3-cyano-N-(2-((1S,4r)-4-((S)-4-((1-(4-((R)-2,6-dioxopiperidin-3-yl)-3,5-difluorophenyl)azetidin-3-yl)methyl)-3-(methoxymethyl)piperazin-1-yl)cyclohexyl)-6-(2-hydroxypropan-2-yl)-2H-indazol-5-yl)pyrrolo[1,2-b]pyridazine-7-carboxamide]: the half-maximal degradation concentration (DC50) in test [3] was 5.4 nM; in test [2] (setting [7]), 1.9 nM; in test [2] (setting [5]) it was 0.5 nM. The values for the Dmax in test [3], in test [2] (setting [6]) and in test [2] (setting [4]) were 96%, 95% and 99%, respectively. In test [1], the pIC50 was 7.77. The Emax in test [1] was found to be 96%.

Consider `CC(C)(O)c1cc2nn([C@H]3CC[C@H](N4CCN(C(=O)C5CN(c6cc(F)c(N7CCC(=O)NC7=O)c(F)c6)C5)CC4)CC3)cc2cc1NC(=O)c1ccc2cc(C#N)cnn12` [Example 105, 3-cyano-N-(2-((1r,4r)-4-(4-(1-(4-(2,4-dioxotetrahydropyrimidin-1(2H)-yl)-3,5-difluorophenyl)azetidine-3-carbonyl)piperazin-1-yl)cyclohexyl)-6-(2-hydroxypropan-2-yl)-2H-indazol-5-yl)pyrrolo[1,2-b]pyridazine-7-carboxamide], for which the DC50 in test [3] turned out to be 21 nM; in test [2] (setting [7]), 3.1 nM; in test [2] (setting [5]), 0.7 nM. Further, the Dmax in test [3] was found to be 98%; in test [2] (setting [6]), 97%; in test [2] (setting [4]), 98%. In test [1], this compound had a pIC50 of 7.44. Besides, the Emax in test [1] was determined as 78%.

The compound `[2H]C([2H])([2H])Oc1cc2nn([C@H]3CC[C@H](N4CCN(C(=O)C5CN(c6cc(F)c(N7CCC(=O)NC7=O)c(F)c6)C5)CC4)CC3)cc2cc1NC(=O)c1cccc(C(F)(F)F)n1` [Example 173, N-(2-((1r,4r)-4-(4-(1-(4-(2,4-dioxotetrahydropyrimidin-1(2H)-yl)-3,5-difluorophenyl)azetidine-3-carbonyl)piperazin-1-yl)cyclohexyl)-6-(methoxy-d3)-2H-indazol-5-yl)-6-(trifluoromethyl)picolinamide] had a pIC50 in test [1] of 7.16. The Emax in test [1] came out at 79%. Besides, the Dmax in test [2] (setting [6]) turned out to be 99%; in test [2] (setting [4]) it was 98%. The figures for the DC50 in test [2] (setting [7]) and in test [2] (setting [5]) were 17 nM and 1.8 nM, respectively.

In test [1], `COc1cc2nn([C@H]3CC[C@H](N4CCN(C(=O)C5CN(c6cc(F)c(N7CCC(=O)NC7=O)c(F)c6)C5)CC4)CC3)cc2cc1NC(=O)c1cccc(C(F)(F)F)n1` [Example 176, N-(2-((1r,4r)-4-(4-(1-(4-(2,4-dioxotetrahydropyrimidin-1(2H)-yl)-3,5-difluorophenyl)azetidine-3-carbonyl)piperazin-1-yl)cyclohexyl)-6-methoxy-2H-indazol-5-yl)-6-(trifluoromethyl)picolinamide] had a pIC50 of 6.92. The Emax in test [1] was determined as 78%. The values for the Dmax in test [2] (setting [6]) and in test [2] (setting [4]) were 96% and 97%, respectively. Moreover, the DC50 in test [2] (setting [7]) was found to be 12 nM; in test [2] (setting [5]) it was 1.6 nM.

`COc1cc2nn([C@H]3CC[C@H](CN4CCN(C(=O)[C@@H]5CCN(c6ccc(N7CCC(=O)NC7=O)cc6)C5)CC4)CC3)cc2cc1NC(=O)c1cccn(C2CC2)c1=O` [Example 33, 1-cyclopropyl-N-(2-((1R,4r)-4-((4-((R)-1-(4-(2,4-dioxotetrahydropyrimidin-1(2H)-yl)phenyl)pyrrolidine-3-carbonyl)piperazin-1-yl)methyl)cyclohexyl)-6-methoxy-2H-indazol-5-yl)-2-oxo-1,2-dihydropyridine-3-carboxamide] showed a pIC50 in test [1] of 7.00. Besides, the Emax in test [1] stood at 53%. For the same compound, the Dmax in test [2] (setting [6]) came out at 81%; in test [2] (setting [4]), 99%. For the same compound, the DC50 amounted to 33 nM in test [2] (setting [7]) and 3.1 nM in test [2] (setting [5]).
